{
  "source": "patent US20220402950A1",
  "about": "“SUBSTITUTED BENZIMIDAZOLES AS PAD4 INHIBITORS” (BRISTOL-MYERS SQUIBB COMPANY, priority 2018, published 2022)",
  "data": [
    {"molecular_target": "human PAD4 (hPAD4) (Homo sapiens, UniProt Q9UM07)", "sequence (Q9UM07 whole entry)": "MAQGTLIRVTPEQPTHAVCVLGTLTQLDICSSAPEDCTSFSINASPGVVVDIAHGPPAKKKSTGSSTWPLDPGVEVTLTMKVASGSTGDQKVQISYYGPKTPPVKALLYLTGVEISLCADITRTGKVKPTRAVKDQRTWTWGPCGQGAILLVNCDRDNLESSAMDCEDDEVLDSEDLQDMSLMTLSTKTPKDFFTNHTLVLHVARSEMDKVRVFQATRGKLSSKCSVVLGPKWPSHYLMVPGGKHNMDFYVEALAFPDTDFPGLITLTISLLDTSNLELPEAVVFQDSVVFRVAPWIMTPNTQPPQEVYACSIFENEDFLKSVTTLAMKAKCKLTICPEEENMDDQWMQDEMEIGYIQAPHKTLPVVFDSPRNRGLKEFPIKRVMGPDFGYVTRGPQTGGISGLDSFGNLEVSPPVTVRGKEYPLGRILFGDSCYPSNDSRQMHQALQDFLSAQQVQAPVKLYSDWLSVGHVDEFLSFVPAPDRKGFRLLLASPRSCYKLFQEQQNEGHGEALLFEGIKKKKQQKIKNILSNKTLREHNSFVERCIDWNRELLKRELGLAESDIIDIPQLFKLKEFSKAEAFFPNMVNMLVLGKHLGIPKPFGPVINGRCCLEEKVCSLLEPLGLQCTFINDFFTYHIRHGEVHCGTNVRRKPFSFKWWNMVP", "assay": "RFMS Human PAD4 Functional Assay", "assay_type": "biochemical", "details": "hPAD4 RFMS IC50, human PAD4, rapid-fire mass spectrum (RFMS) assay; 5 nM hPAD4, 250 μM BAEE", "summary_of_the_method": "(§1)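 RapidFire ESI-MS quantification, normalised to a modified-citrulline internal standard, after phenyl glyoxal (final 4 mM) derivatisation of the TCA-quenched reaction. The enzyme (10 nM) sat 30 min with compound (up to 50 μM final) before 500 μM BAEE (as added) started a 90 min, 37 °C reaction. Buffer: HEPES pH 7.5, 50 μM calcium, 5 μM TPEN.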", "units": {"IC50": "nM"}, "values": [
      {"smiles": "COc1cc(C(=O)N2C[C@H]3CC[C@@H]2[C@@H]3N)cc2nc(-c3cc4cccc(Nc5cn(C)nc5C)c4n3CC3CC3)n(C)c12", "note": "[Example 173, ((1R,4R,7R)-7-amino-2-azabicyclo[2.2.1]heptan-2-yl)(2-(1-(cyclopropylmethyl)-7-((1,3-dimethyl-1H-pyrazol-4-yl)amino)-1H-indol-2-yl)-7-methoxy-1-methyl-1H-benzo[d]imidazol-5-yl)methanone]", "IC50": 42},
      {"smiles": "COc1cc(C(=O)N2C[C@H]3CC[C@@H]2[C@@H]3N)cc2nc(-c3cc4cccc(NC5CCN(C)CC5)c4n3CC3CC3)n(C)c12", "note": "[Example 170, ((1R,4R,7R)-7-amino-2-azabicyclo[2.2.1]heptan-2-yl)(2-(1-(cyclopropylmethyl)-7-((1-methylpiperidin-4-yl)amino)-1H-indol-2-yl)-7-methoxy-1-methyl-1H-benzo[d]imidazol-5-yl)methanone]", "IC50": 59},
      {"smiles": "[2H]C([2H])([2H])N(C(=O)C1CC(c2cccc3cc(-c4nc5cc(C(=O)N6C[C@H]7CC[C@@H]6[C@@H]7N)cc(OC)c5n4C)n(CC4CC4)c23)C1)C([2H])([2H])[2H]", "note": "(single isomer, unassigned; isomer 1) [Example 195]", "IC50": 16},
      {"smiles": "COc1cc(C(=O)N2C[C@H]3CC[C@@H]2[C@@H]3N)cc2nc(-c3cc4cccc(Nc5cnn(C)c5)c4n3CC3CC3)n(C)c12", "note": "[Example 171, ((1R,4R,7R)-7-amino-2-azabicyclo[2.2.1]heptan-2-yl)(2-(1-(cyclopropylmethyl)-7-((1-methyl-1H-pyrazol-4-yl)amino)-1H-indol-2-yl)-7-methoxy-1-methyl-1H-benzo[d]imidazol-5-yl)methanone]", "IC50": 96},
      {"smiles": "COc1cc(C(=O)N2C[C@H]3CC[C@@H]2[C@@H]3N)cc2nc(-c3cc4cccc(C5CC(C(=O)N(C)C)C5)c4n3CC3CC3)n(C)c12", "note": "(single isomer, unassigned) [Example 48]", "IC50": 50},
      {"smiles": "COc1cc(C(=O)N2C[C@@H]3CC[C@@H]2C3N)cc2nc(-c3cc4cccc(-c5ccccc5C#N)c4n3CC3CC3)n(C)c12", "note": "(stereo partly drawn) [Example 143, 2-(2-(5-((1R,4S)-7-amino-2-azabicyclo[2.2.1]heptane-2-carbonyl)-7-methoxy-1-methyl-1H-benzo[d]imidazol-2-yl)-1-(cyclopropylmethyl)-1H-indol-7-yl)benzonitrile]", "IC50": 181},
      {"smiles": "COc1cc(C(=O)N2C[C@H]3CC[C@@H]2[C@@H]3N)cc2nc(-c3cc4cccc(-c5cc(F)c(O)cc5F)c4n3CC3CC3)n(C)c12", "note": "[Example 94, 4-(2-{5-[(1R,4R,7R)-7-amino-2-azabicyclo[2.2.1]heptane-2-carbonyl]-7-methoxy-1-methyl-1H-1,3-benzodiazol-2-yl}-1-(cyclopropylmethyl)-1H-indol-7-yl)-2,5-difluorophenol]", "IC50": 45},
      {"smiles": "COc1cc(C(=O)N2C[C@H]3CC[C@@H]2[C@@H]3N)cc2nc(-c3cc4cccc(C5CCN(C(=O)Nc6ccncc6)CC5)c4n3CC3CC3)n(C)c12", "note": "[Example 245, 4-(2-(5-((1R,4R,7R)-7-amino-2-azabicyclo[2.2.1]heptane-2-carbonyl)-7-methoxy-1-methyl-1H-benzo[d]imidazol-2-yl)-1-(cyclopropylmethyl)-1H-indol-7-yl)-N-(pyridin-4-yl)piperidine-1-carboxamide]", "IC50": 13},
      {"smiles": "COc1cc(C(=O)N2C[C@H]3CC[C@@H]2[C@@H]3N)cc2nc(-c3cc4cccc(C5CC(C(=O)O)C5)c4n3CC3CC3)n(C)c12", "note": "(single isomer, unassigned) [Example 56]", "IC50": 170}
    ]},
    {"molecular_target": "human PAD4 (hPAD4) (Homo sapiens, UniProt Q9UM07)", "assay": "RFMS Human PAD4 Functional Assay", "assay_type": "biochemical", "details": "human PAD4, rapid-fire mass spectrum (RFMS) assay; 5 nM hPAD4, 250 μM BAEE; read-out: hPAD4 RFMS IC50", "summary_of_the_method": "as §1", "units": {"IC50": "nM"}, "values": [
      {"smiles": "CNC(=O)C1CC(c2cccc3cc(-c4nc5cc(C(=O)N6C[C@H](N)C[C@@H](F)C6)cc(OC)c5n4C)n(CC4CC4)c23)C1", "note": "(single isomer, unassigned) [Example 112]", "IC50": 145},
      {"smiles": "COc1cc(C(=O)N2C[C@H]3CC[C@@H]2[C@@H]3N)cc2nc(-c3cc4cccc(C(N)=O)c4n3CC3CC3)n(C)c12", "note": "[Example 184, 2-(5-((1R,4R,7R)-7-Amino-2-azabicyclo[2.2.1]heptane-2-carbonyl)-7-methoxy-1-methyl-1H-benzo[d]imidazol-2-yl)-1-(cyclopropylmethyl)-1H-indole-7-carboxamide]", "IC50": 74}
    ]}
  ]
}
